Data on 2 compounds can be found in patent US12636272B2, “Method and composition for inhibiting virus infection” (ARJIL BIOTECH HOLDING COMPANY LIMITED, priority 2020, dated 2026).

Values joined by “and” are separate entries in the source; they are usually repeats but may differ in a detail not shown here. Equal values may be shown once.

In one data set the test system is HuS-E/2 cells. Put plainly: Cell viability of HuS-E/2 cells (MTT assay). The class given is cell-based. The following applies: 0-1000 μg/ml AR100-DS1 for 48 h.
Data set [1] relates to HBV. Briefly: HBV DNA level in the culture medium of HepG2.2.15 cells (real-time PCR). The class given is cell-based, Hepatitis B virus (HBV). From the text: (§1) Continuous HBV proliferation can be achieved in HepG2.2.15 cells (RRID:CVCL_L855) stably transfected with the HBV genome of the adw2 subtype. HepG2.2.15 cells are used because of the unlimited supply and constant quality and were maintained in Dulbecco's modified Eagle medium (DMEM; Invitrogen) supplemented with 10% heat-inactivated fetal bovine serum (FBS; Thermo) plus 100 units of penicillin and […] of streptomycin per ml (both from Invitrogen).
The culture medium from drug-treated HepG2.2.15 cells is clarified by centrifugation at 1,000× g at 4° C. for 10 min, and then the supernatant is layered on top of a 20% sucrose cushion (20% sucrose, 20 mM HEPES, pH 7:4, 0.1% bovine serum albumin [BSA]) and centrifuged at 197,000× g for 3 h at 4° C. to pellet the HBV particles, which are then concentrated 100 fold to detect HBV DNA.
Total DNA is extracted with a Genomic DNA isolation kit (Nexttee Biotechnologie, Germany). Total RNA is isolated from cultured cells using TRIzol® reagent (Invitrogen). […] The results are analyzed with the iCycler iQ real-time PCR detection system (Bio-Rad). […]
(§2) To test whether AR100-DS1 had any effect on HBV genome replication, assembly, or secretion, HepG2.2.15 cells that were stably transfected with HBV genome, were used to incubate with AR 100-DS1 for 48 hours, then HBsAg and HBV DNA collected from medium were measured by ELISA and real-time PCR.
(Quantitative PCR measures a nucleic acid by following its amplification.)

For data set [2], the system named is HBV. Briefly: HBsAg secretion of HepG2.2.15 cells (ELISA). Format: cell-based, Hepatitis B virus (HBV).
Description: as §1, §2

The test system of another data set is HepG2.2.15 cells. Briefly: Cell viability of HepG2.2.15 cells. Format: cell-based.
Data set [3] concerns HBV. Put plainly: HBV infectivity/entry in HuS-E/2 cells (HBsAg ELISA, HBV mRNA real-time PCR). The class given is cell-based, Hepatitis B virus (HBV). On the technique in general: In an ELISA, binding on a coated surface is turned into a signal by an enzyme label.
The subject of a further data set is SARS-COV-2 (NTU13). Briefly: Plaque reduction assay in Vero E6 cells. Format: cell-based. The following applies: 1 μM RDV*. (In general: In a plaque reduction assay, fewer plaques than in the control indicate reduced infectivity or spread.)
Where [4] appears, read: HuS-E/2 cells, 0, 5 and 10 of AR100-DS1 during infection for 18 h, then 48 hours.

On to `C=C1C(=O)O[C@H]2/C=C(\C)CC3C=C(CC/C=C(\C)CC[C@H]12)C(=O)O3` (some centres unmarked) [AR100-DS1], for which the cell viability result in the data set on HuS-E/2 cells and in the data set with HepG2.2.15 cells was “marked dose-dependent reduction in cell viability” throughout. Besides, the “HBV DNA level in medium” value in the data set on HBV [1] (20 μg/ml AR100-DS1, 48 hours) is given as “significantly reduced”; with HBV [1] (40 μg/ml AR100-DS1, 48 hours), “significantly reduced”. Besides, the “secretion of HBsAg” value in the data set with HBV [2] (0, 20 and 40 μg/ml AR100-DS1, HepG2.2.15 cells (FIG. 1C)) was “significantly inhibited”. The “secretion of HBsAg reduced to” value with HBV [2] (10 μg/ml AR100-DS1, 48 hours, HepG2.2.15 cells) was 75.25%; in the data set with HBV [2] (20 μg/ml AR100-DS1, 48 hours, HepG2.2.15 cells (FIGS. 1A and 1B)) it was 69.77% and 63.00%; with HBV [2] (50 μg/ml AR100-DS1, 48 hours, HepG2.2.15 cells), 56.78%. Also, in the data set with HBV [3] (HuS-E/2 cells), the “entry of HBV in HuS-E/2 cells” value is recorded as “could not prevent HBV entering into HuS-E/2 cells”. The “HBV mRNA expression level” value in the data set with HBV [3] (setting [4]) is given as “neither secretion of HBsAg in the medium nor HBV mRNA expression level showed dose-dependent reduction”. In addition, in the data set on HBV [3] (setting [4]), the “secretion of HBsAg in the medium” value is given as “neither secretion of HBsAg in the medium nor HBV mRNA expression level showed dose-dependent reduction”.

Take `CCC(CC)COC(=O)[C@H](C)N[P@](=O)(OC[C@H]1O[C@@](C#N)(c2ccc3c(N)ncnn23)[C@H](O)[C@@H]1O)Oc1ccccc1` [RDV, remdesivir]: in the data set on SARS-COV-2 (NTU13), the “Inhibition (%) to DMSO mean” value was determined as 80%, the “Inhibition (%) to virus mean” value is given as 82% and the “Plaque number per well mean” value came to 32.
